For experiment [1], the system named is Human gastric cancer cells (MKN-45). The experiment can be described thus: Inhibitory activity against the proliferation of human gastric cancer cells (MKN-45). It is filed as cell-based. To be noted: 72 h, MKN-45, 1% FBS RPMI1640, 3 days, Cell Counting Kit-8. How it is done: Human gastric cancer cells (MKN-45) were suspended in a 1% FBS-containing RPMI1640 medium (purchased from Sigma). The cell suspension (1×10^4 cells/ml) was added in a 96-well plate for cell culture (purchased from NUNC, Production No. 167008) at 0.1 ml/well, and then cultured in a 5% CO2 incubator (37° C.) overnight. After the culture, each well was supplied with 0.1 ml of a test substance diluted with a 1% FBS-containing RPMI1640 medium, followed by culturing in a 5% CO2 incubator (37° C.) for 3 days. After the culture, each well was supplied with 10 μl of Cell Counting Kit-8 (purchased from DOJINDO, Production No. 343-07623), followed by incubation in a 5% CO2 incubator (37° C.) for about 1.5 hrs. After the incubation, using the Plate Reader MTP-500 (Corona Electric), the absorbance of each well was determined at a measurement wavelength of 450 nm and a reference wavelength of 660 nm.
Background: Formazan colour is commonly taken as a measure of viable cells.

Experiment [2] concerns Human umbilical vein endothelial cells (HUVECs). The experiment can be described thus: Inhibitory activity against the growth of vascular endothelial cells stimulated with hepatocyte growth factor. It counts as cell-based. Particulars: HUVEC, HGF stimulated, third day, Cell Counting Kit-8, read-out: IC50 (cell proliferation activity). As for the experimental part: Human umbilical vein endothelial cells (HUVECs) were isolated according to the reported method (Shin Seikagaku Jikken Koza, “Cell culturing techniques”, p 197-202), and then cultured in a 5% CO2 incubator (37° C.) using EGM-2 medium (purchased from Clonetics) until the cells reached confluency.
HUVECs were suspended in a serum-free medium for endothelial cell culture (SFM, purchased from GIBCO RBL) containing 2% FBS. The cell suspension (2×10^4 cells/ml) was put in a cell culturing 96-well plate (purchased from NUNC, Production No. 167008) at 0.1 ml/well, and then cultured in a 5% CO2 incubator (37° C.) overnight. After the culture, each well was supplied with 50 μl of the test substance diluted with a 2% FBS-containing serum-free medium for endothelial cell culture and 50 μl of HGF (purchased from R&D) diluted at a concentration of 120 ng/ml with a 2% FBS-containing serum-free medium for endothelial cell culture, followed by culturing in a 5% CO2 incubator (37° C.). On the third day after the addition of the test substance, each well was supplied with 10 μl of Cell Counting Kit-8 (purchased from DOJINDO, Production No. 343-07623), and then the plate was incubated in a 5% CO2 incubator (37° C.) for about 2 hours. After the incubation, using a Plate Reader MTP-500 (Corona Electric), the absorbance of each well was determined at a measurement wavelength of 450 nm and a reference wavelength of 660 nm. While defining the absorbance of a well supplied with HGF and no test substance as 100% cell proliferation activity and the absorbance of the well supplied with no test substance and no HGF as 0% cell proliferation activity, the cell proliferation activity ratio (%) was calculated for each cell.

Structures are written as SMILES.

This passage reports IC50 results from patent US7855290B2, “Pyridine derivatives and pyrimidine derivatives (3)” (Eisai R&D Management Co., Ltd., priority 2005, dated 2010).

`CN1CCN(C2CCN(C(=O)Nc3cc(Oc4ccc(NC(=O)C5(C(=O)Nc6ccc(F)cc6)CC5)c(F)c4)ccn3)CC2)CC1` [Example 15, N-(2-Fluoro-4-{[2-({[4-(4-methylpiperazin-1-yl)piperidin-1-yl]carbonyl}amino)pyridin-4-yl]oxy}phenyl)-N′-(4-fluorophenyl)cyclopropane-1,1-dicarboxamide]: the values for the IC50 in experiment [1] and in experiment [2] were 17 nM and 15 nM, respectively.
